Literature values, collected in patent US12187997B2, “Integrated human organ-on-chip microphysiological systems” (President and Fellows of Harvard College, priority 2011, dated 2025).
Entries after “also recorded” stand apart in the source; their conditions may differ.

Legend:
[1] = for Organ Toxicity: Table 1
[2] = for Clearence Mechanism (for PK): Table 1
[3] = relieving dyspnea in heart failure patients

| Clearence Mechanism (for PK) [2] | Compound | toxicity in humans / in vivo [1] | Organ Toxicity [1] | metabolism and elimination [2] | clinical efficacy [3] |
| --- | --- | --- | --- | --- | --- |
| – | Cc1nnc(SCC2=C(C(=O)O)N3C(=O)[C@@H](NC(=O)Cn4cnnn4)[C@H]3SC2)s1 [Cefazolin] | produces pulmonary blood clots and nephrotoxicity | Lung, Kidney | – | – |
| Liver | COCc1c(C(C)C)nc(C(C)C)c(/C=C/[C@@H](O)C[C@@H](O)CC(=O)O)c1-c1ccc(F)cc1 [Cerivastatin] | major toxicities in vivo (rhabdylomysis) and liver toxicity | Skeletal; also recorded: muscle,; also recorded: Kidney, Liver | – | – |
| Aerosol | Nc1ccn([C@H]2C[C@H](O)[C@@H](COP(=O)(O)OP(=O)(O)OP(=O)(O)OP(=O)(O)OC[C@H]3O[C@@H](n4ccc(=O)[nH]c4=O)[C@H](O)[C@@H]3O)O2)c(=O)n1 [Denufosol] | – | – | – | – |
| Liver, Renal | COc1cccc2c1C(=O)c1c(O)c3c(c(O)c1C2=O)C[C@@](O)(C(=O)CO)C[C@@H]3O[C@H]1C[C@H](N)[C@H](O)[C@H](C)O1 [Doxorubicin] | – | Heart, gut, and bone marrow, and skin | – | – |
| Renal | CC(C)NCC(O)c1ccc(O)c(O)c1 (centres unmarked) [Isoproterenol] | – | Heart | primarily metabolized and excreted by the kidney in humans | – |
| Liver | CC(=O)N1CCN(c2ccc(OCC3COC(Cn4ccnc4)(c4ccc(Cl)cc4Cl)O3)cc2)CC1 (centres unmarked) [Ketoconazole] | – | Liver DDI, tests | – | – |
| (Crosses BBB) | Cc1ccc2c(c1)c1c(n2CCc2ccc(C)nc2)CCN(C)C1 [Latrepirdine] | – | – | – | – |
| – | CC(C)(C)c1ccc(C(O)CCCN2CCC(C(O)(c3ccccc3)c3ccccc3)CC2)cc1 (centres unmarked) [Terfenadine] | cardiotoxic at higher doses in humans | Heart; also recorded: arrhythmia | – | – |
| Liver | Cc1c(C)c2c(c(C)c1O)CCC(C)(COc1ccc(CC3SC(=O)NC3=O)cc1)O2 (centres unmarked) [Troglitazone] | – | Liver | – | – |
| Liver | COc1ccc(C(=O)N2CCN(c3ccc4c(c3)CCC(=O)N4)CC2)cc1OC [Vesnarinone] | – | Heart | – | – |

| Compound | Clearence Mechanism (for PK) [2] | toxicity in humans / in vivo [1] | Organ Toxicity [1] | metabolism and elimination [2] | clinical efficacy [3] |
| --- | --- | --- | --- | --- | --- |
| N.N.[Cl][Pt][Cl] [Cisplatin] | Renal | – | – | – | – |
| CCOC(=O)C1=C[C@@H](OC(CC)CC)[C@H](NC(C)=O)[C@@H](N)C1 [Tamiflu] | Liver; Renal | – | children <1 yr | – | – |
| Nesiritide | Proteolysis,; also recorded: Renal | – | – | primarily eliminated by the kidney | failed a large clinical trial for efficacy |
